The test system of the assay is cardiac allograft. Description: Cardiac allograft rejection in rats: long term graft survival. The format is in vivo, rat. The following applies: for Mean Survival Time, extended data set: Table 10b. As to the method: Animals were obtained from the Animal Resources Centre, Australia. The rats were allowed free access to food and water in a 12-hour light/12-hour dark cycled room. The experimental protocol was approved by the Committee on the Use of Live Animals in Teaching and Research, University of Hong Kong.
Six rats were used in each treatment group.
Recipient rats in TGA received hearts harvested from donor […] strain rats.
Graft survival was analysed using a chi-squared test.
Example 3 was extended to include a number of alternative treatment groups and additional numbers of animals in certain of the treatment groups already investigated.
Table 10b below summarises the graft survival rates, including both the original and supplemental data.

Here are results for one molecule from patent US20090082260A1, “COMBINATION OF AN IMMUNOSUPPRESSANT AND A PPAR GAMMA AGONIST FOR THE TREATMENT OF AN UNDESIRABLE IMMUNE RESPONSE” (priority 2005, published 2009).

Consider `CN(CCOc1ccc(CC2SC(=O)NC2=O)cc1)c1ccccn1` (centres unmarked) [rosiglitazone, 5-[4-[2-(N-methyl-N-(2-pyridyl)amino)ethoxy]benzyl]thiazolidine-2,4-dione], for which the “Graft survival compared with untreated subjects (TGE)” value by setting is: (PPAR-gamma agonist alone at a high dose (TGF, 20 mg/kg/day)) “does not show any notable difference”; (PPAR-gamma agonist alone at a medium dose (TGB, 5 mg/kg/day)) “does not show any notable difference”. For the same molecule, the “Mean Survival Time” value (Table 10, TGA cyclosporin A 20 mg/kg/day i.p. 14 days, TGB rosiglitazone 5 mg/kg/day oral to day 120, TGC both, n=6) came to 15.8 days. Further, the “Mean Survival Time, extended data set” value reads like this: (TGA cyclosporin A 20 mg/kg/day i.p. 14 days, TGB rosiglitazone 5 mg/kg/day oral, TGC both) 15.8 days; (TGF high dose rosiglitazone 20 mg/kg/day oral only, n=6) 18.8 days.
